Biological target: T1, human mAChR M4 (Homo sapiens, UniProt P08173)
T1 construct: expressed in transfected cells; host or cells: CHO-K1 (ATCC), stably co-expressing chimeric G protein Gqi5
T1 sequence (P08173 1-479): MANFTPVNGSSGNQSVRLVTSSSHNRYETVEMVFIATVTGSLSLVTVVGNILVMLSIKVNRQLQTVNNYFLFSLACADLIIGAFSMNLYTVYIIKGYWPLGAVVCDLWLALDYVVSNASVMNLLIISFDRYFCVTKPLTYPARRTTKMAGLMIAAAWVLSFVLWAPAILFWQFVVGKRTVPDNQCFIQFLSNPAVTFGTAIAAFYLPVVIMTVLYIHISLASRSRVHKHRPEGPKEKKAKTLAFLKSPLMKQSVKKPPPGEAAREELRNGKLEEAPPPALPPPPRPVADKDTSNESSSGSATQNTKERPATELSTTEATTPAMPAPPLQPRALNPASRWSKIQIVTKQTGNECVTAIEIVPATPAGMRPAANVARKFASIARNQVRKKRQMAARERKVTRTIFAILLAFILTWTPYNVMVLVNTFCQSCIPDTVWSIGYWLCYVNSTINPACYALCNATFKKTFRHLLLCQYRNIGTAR
Assay: mAChR M4 cell-based functional assay (calcium mobilization, EC80 acetylcholine), human M4
Conditions: for Emin: human M4, % ACh maximum at 30 μM
How it was run: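 CHO-K1 cells stably expressing human M4 with chimeric Gqi5; intracellular calcium rise read on FDSS as fluorescence static ratio at 1 Hz. Compounds in 10-point 1:3 dilution series; IC50 taken as concentration-dependent decrease of the EC80 acetylcholine response, four-parameter logistic fit.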

[1] = Table 10, M4/Gqi5/CHO-K1 cells, decrease of EC80 acetylcholine response
[2] = Table 9, M4/Gqi5/CHO-K1 cells, decrease of EC80 acetylcholine response

Compound	Human M4 Emin (Table 10)	IC50 [1]	IC50 [2]	Emin (Table 9)	IC50 (Table 10, μM)
Cc1nn(C)cc1-c1ccc(N[C@H]2C[C@@H]3CN(CC4CCOCC4)C[C@@H]3C2)nn1 [Compound 5, (3aR,5s,6aS)-N-[6-(1,3-dimethylpyrazol-4-yl)pyridazin-3-yl]-2-(tetrahydropyran-4-ylmethyl)-3,3a,4,5,6,6a-hexahydro-1H-cyclopenta[c]pyrrol-5-amine]			0.01 µM	2.98%	
Cc1nn(C)cc1-c1ccc(N[C@H]2C[C@@H]3CN(Cc4ccccn4)C[C@@H]3C2)nn1 [Compound 9, (3aR,5s,6aS)-N-[6-(1,3-dimethylpyrazol-4-yl)pyridazin-3-yl]-2-(2-pyridylmethyl)-3,3a,4,5,6,6a-hexahydro-1H-cyclopenta[c]pyrrol-5-amine]			0.0458 µM	3.96%	
CCCC(C)CN1C[C@H]2CC(COc3ccc(-c4c(C)cnn4C)nn3)C[C@H]2C1 (stereo partly drawn) [Compound 82, (3aR,6aS)-5-[[6-(2,4-dimethylpyrazol-3-yl)pyridazin-3-yl]oxymethyl]-2-(2-methylpentyl)-3,3a,4,5,6,6a-hexahydro-1H-cyclopenta[c]pyrrole]			0.538 µM	4.50%	
Cc1nn(C)cc1-c1ccc(OCC2C[C@@H]3CN(CCC(C)(C)C)C[C@@H]3C2)nn1 (stereo partly drawn) [Compound 92, (3sR,6aS)-2-(3,3-dimethylbutyl)-5-[[6-(1,3-dimethylpyrazol-4-yl)pyridazin-3-yl]oxymethyl]-3,3a,4,5,6,6a-hexahydro-1H-cyclopenta[c]pyrrole]			0.0583 µM	4.01%	
O=C(Nc1ccc(-c2ccc(F)cc2Cl)nn1)C1C[C@@H]2CN(CC3CC4C=CC3C4)C[C@@H]2C1 (stereo partly drawn) [Compound 75, (3aR,6aS)-2-(5-bicyclo[2.2.1]hept-2-enylmethyl)-N-[6-(2-chloro-4-fluoro-phenyl)pyridazin-3-yl]-3,3a,4,5,6,6a-hexahydro-1H-cyclopenta[c]pyrrole-5-carboxamide]			2.78 µM	3.25%	
Cc1cnn(C)c1-c1ccc(N[C@H]2C[C@@H]3CN(Cc4ccccc4)C[C@@H]3C2)nn1 [Compound 23, (3aR,5s,6aS)-2-benzyl-N-[6-(2,4-dimethylpyrazol-3-yl)pyridazin-3-yl]-3,3a,4,5,6,6a-hexahydro-1H-cyclopenta[c]pyrrol-5-amine]			0.118 µM	3.85%	
CC(C)(C)CCN1C[C@H]2C[C@@H](Oc3ccc(-c4cc(F)ccc4Cl)nn3)C[C@H]2C1 [Compound 54, (3aR,5r,6aS)-5-[6-(2-chloro-5-fluoro-phenyl)pyridazin-3-yl]oxy-2-(3,3-dimethylbutyl)-3,3a,4,5,6,6a-hexahydro-1H-cyclopenta[c]pyrrole]			0.222 µM	3.07%	
Cc1nn(C)cc1-c1ccc(N[C@H]2C[C@@H]3CN(Cc4ccccc4)C[C@@H]3C2)nn1 [Compound 8, (3aR,5s,6aS)-2-benzyl-N-[6-(1,3-dimethylpyrazol-4-yl)pyridazin-3-yl]-3,3a,4,5,6,6a-hexahydro-1H-cyclopenta[c]pyrrol-5-amine]			0.01 µM	3.22%	
Cc1cnn(C)c1-c1ccc(NC[C@H]2C[C@@H]3CN(CCC(C)(C)C)C[C@@H]3C2)nn1 [Compound 61, N-[[(3aR,5s,6aS)-2-(3,3-Dimethylbutyl)-3,3a,4,5,6,6a-hexahydro-1H-cyclopenta[c]pyrrol-5-yl]methyl]-6-(2,4-dimethylpyrazol-3-yl)pyridazin-3-amine]			0.0356 µM	3.12%	
Cc1nn(C)cc1-c1ccc(N[C@H]2C[C@@H]3CN(CC45CC6CC(CC(C6)C4)C5)C[C@@H]3C2)nn1 [Compound 37, (3aR,5s,6aS)-2-(1-adamantylmethyl)-N-[6-(1,3-dimethylpyrazol-4-yl)pyridazin-3-yl]-3,3a,4,5,6,6a-hexahydro-1H-cyclopenta[c]pyrrol-5-amine]			0.0258 µM	5.65%	

Now from value to molecule:

Human M4 Emin (Table 10)	IC50 [1]	IC50 [2]	Emin (Table 9)	IC50 (Table 10, μM)	Compound
4%	0.000399 µM				Fc1cnc(Cl)c(-c2ccc(N[C@H]3C[C@@H]4CN(CC5CCOCC5)C[C@@H]4C3)nn2)c1 [Compound 220, (3aR,5s,6aS)-N-[6-(2-chloro-5-fluoro-3-pyridyl)pyridazin-3-yl]-2-(tetrahydropyran-4-ylmethyl)-3,3a,4,5,6,6a-hexahydro-1H-cyclopenta[c]pyrrol-5-amine]
		0.002 µM	3.48%		Cc1cnn(C)c1-c1ccc(NCCC2C[C@@H]3CN(CCC(C)(C)C)C[C@@H]3C2)nn1 (stereo partly drawn) [Compound 120, 6-(1,4-Dimethyl-1H-pyrazol-5-yl)-N-(2-((3aR,6aS)-2-(3,3-dimethylbutyl)octahydrocyclopenta[c]pyrrol-5-yl)ethyl)pyridazin-3-amine]
		0.041 µM			Cc1nn(C)cc1-c1ccc(N[C@H]2C[C@@H]3CN(Cc4ccccc4F)C[C@@H]3C2)nn1 [compound 10]
		0.0821 µM	4.05%		Cc1nn(C)cc1-c1ccc(OCC2C[C@@H]3CN(CC45CC6CC(CC(C6)C4)C5)C[C@@H]3C2)nn1 (stereo partly drawn) [Compound 93, (3aR,6aS)-2-(1-adamantylmethyl)-5-[[6-(1,3-dimethylpyrazol-4-yl)pyridazin-3-yl]oxymethyl]-3,3a,4,5,6,6a-hexahydro-1H-cyclopenta[c]pyrrole]
8%	0.00117 µM				CC(=O)Nc1ccc(-c2ccc(N[C@H]3C[C@@H]4CN(CC5CCOCC5)C[C@@H]4C3)nn2)cc1 [Compound 180, N-[4-[6-[[(3aR,5s,6aS)-2-(tetrahydropyran-4-ylmethyl)-3,3a,4,5,6,6a-hexahydro-1H-cyclopenta[c]pyrrol-5-yl]amino]pyridazin-3-yl]phenyl]acetamide]
		0.668 µM	4.24%		Fc1ccc(Cl)c(-c2ccc(OCC3C[C@@H]4CN(Cc5ccc6c(c5)OCO6)C[C@@H]4C3)nn2)c1 (stereo partly drawn) [Compound 119, (3aR,6aS)-2-(1,3-benzodioxol-5-ylmethyl)-5-[[6-(2-chloro-5-fluoro-phenyl)pyridazin-3-yl]oxymethyl]-3,3a,4,5,6,6a-hexahydro-1H-cyclopenta[c]pyrrole]
68%				> 10 µM	c1ccc(-c2cnc(N[C@H]3C[C@@H]4CN(Cc5ccncc5)C[C@@H]4C3)s2)cc1 [Compound 231, N-[(3aR,5s,6aS)-2-(4-pyridylmethyl)-3,3a,4,5,6,6a-hexahydro-1H-cyclopenta[c]pyrrol-5-yl]-5-phenyl-thiazol-2-amine]
4%	0.0159 µM				Cc1nn(C)cc1-c1cnc(N[C@H]2C[C@@H]3CN(CC45CC6CC(CC(C6)C4)C5)C[C@@H]3C2)cn1 [Compound 155, (3aR,5s6aS)-2-(1-adamantylmethyl)-N-[5-(1,3-dimethylpyrazol-4-yl)pyrazin-2-yl]-3,3a,4,5,6,6a-hexahydro-1H-cyclopenta[c]pyrrol-5-amine]
		0.134 µM	3.90%		Fc1ccc(Cl)c(-c2ccc(OCC3C[C@@H]4CN(CC5CC6C=CC5C6)C[C@@H]4C3)nn2)c1 (stereo partly drawn) [Compound 108, (3aR,6aS)-2-(5-bicyclo[2.2.1]hept-2-enylmethyl)-5-[[6-(2-chloro-5-fluoro-phenyl)pyridazin-3-yl]oxymethyl]-3,3a,4,5,6,6a-hexahydro-1H-cyclopenta[c]pyrrole]
		0.0062 µM	2.16%		Cc1cnn(C)c1-c1ccc(NCCC2C[C@@H]3CN(CC4CC5C=CC4C5)C[C@@H]3C2)nn1 (stereo partly drawn) [Compound 123, N-[2-[(3aR,6aS)-2-(5-bicyclo[2.2.1]hept-2-enylmethyl)-3,3a,4,5,6,6a-hexahydro-1H-cyclopenta[c]pyrrol-5-yl]ethyl]-6-(2,4-dimethylpyrazol-3-yl)pyridazin-3-amine]
4%	0.000667 µM				Fc1ccccc1-c1ccc(N[C@H]2C[C@@H]3CN(CC4CCOCC4)C[C@@H]3C2)nn1 [Compound 185, (3aR,5s,6aS)-N-[6-(2-fluorophenyl)pyridazin-3-yl]-2-(tetrahydropyran-4-ylmethyl)-3,3a,4,5,6,6a-hexahydro-1H-cyclopenta[c]pyrrol-5-amine]
3%	0.0427 µM				CS(=O)(=O)Nc1ccc(CN2C[C@H]3C[C@H](Nc4ccc(-c5cc(F)ccc5Cl)nn4)C[C@H]3C2)cc1 [Compound 172, N-[4-[[(3aR,5s,6aS)-5-[[6-(2-chloro-5-fluoro-phenyl)pyridazin-3-yl]amino]-3,3a,4,5,6,6a-hexahydro-1H-cyclopenta[c]pyrrol-2-yl]methyl]phenyl]methanesulfonamide]
16%	0.0448 µM				CN(C)C(=O)c1ccc(-c2ccc(N[C@H]3C[C@@H]4CN(CC5CCOCC5)C[C@@H]4C3)nn2)cc1 [Compound 207, 4-[6-[[(3aR,5s,6aS)-2-(tetrahydropyran-4-ylmethyl)-3,3a,4,5,6,6a-hexahydro-1H-cyclopenta[c]pyrrol-5-yl]amino]pyridazin-3-yl]-N,N-dimethyl-benzamide]

Source: patent US12577234B2, “Antagonists of the muscarinic acetylcholine receptor M4” (Vanderbilt University, priority 2017, dated 2026)
